Reference: US20260191815A1, “THIOACRYLAMIDE DERIVATIVES FOR USE IN THE PREVENTION OR TREATMENT OF LIVER FIBROSIS” (CMR CUREDIAB METABOLIC RESEARCH GMBH, priority 2022, published 2026)

Legend:
[1] = tested on: caspase 3/7 activity in HepG2 cells; assay: Caspase 3/7 activity provoked by palmitate in HepG2 cells; assay type: cell-based; details: for reduction of the caspase 3/7 activity provoked by palmitate, compared among thioacrylamide derivatives: 100 nM + palmitate 200 μM, n=4; for activity at 10 µM: Homo sapiens, 10 μM pre-treatment 30 min + palmitate 200 μM, 24 h, read-out: caspase 3/7 activity, % of control
Method: The potential protective effect of HK1 and HK3 on caspase 3/7 activity in HepG2 cells and primary human hepatocytes was analysed.
HepG2 cells were obtained from Merck (Darmstadt, Germany) (ECACC-certified), while primary human hepatocytes were obtained from Thermo Fisher Scientific (Waltham, MA, USA), and all were cultured according to the instructions of the respective manufacturers. During experiments, cells were cultured in serum-free medium. Unless otherwise stated, cells were treated with 200 μM bovine serum albumin (BSA)-conjugated palmitate (Cayman Chemicals, Ann Arbor, MI) alone or in combination with 10 μM HK1 (Taros Chemicals GmbH & Co. KG, Dortmund, Germany) and HK3 (Taros Chemicals GmbH & Co. KG, Dortmund, Germany) 30 min prior to palmitate exposure for 24 hours. The vehicle BSA was used according to the palmitate concentration and DMSO according to HK1 and HK3 concentration. 2 μM Staurosporine (Abcam, Cambridge, GB) was used as a positive and 100 μM Caspase 3/7 inhibitor (CI) (Cayman Chemicals) as a negative control.
Differences were analysed by one-way ANOVA.
A hepatoprotective effect was determined as described in Example 4. A treatment was performed with HK1, HK2, HK3, HK4 or HK5 (100 nM) either alone or in combination with palmitate (200 μM).
Differences were analysed by one-way ANOVA, n=4.

[2] = tested on: 3D primary human hepatocyte (PHH) spheroid NASH model; assay: Viability (ATP, CellTiter-Glo) of 3D PHH:NPC spheroids; assay type: cell-based; details: 0.1 μM to 10 μM, up to 2 weeks
Method: Experiments were conducted using HepaPredict's (HepaPredict AB, Sweden) 3D primary human hepatocyte (PHH) spheroid NASH model (e.g. as published in Bell et al. Sci Rep. 2016 May 4; 6:25187. doi: 10.1038/srep25187).
Cryopreserved primary human hepatocytes were obtained from BioIVT (USA) and nonparenchymal cells (NPC) from LifeNetHealth (USA). After thawing, PHH-NPC cocultures were seeded in a multi-well 96-well Elplasia plate (Corning) in William's E medium containing 11 mM glucose, 10 μg/mL (control) or 10 mg/mL insulin (NASH), 100 nM dexamethasone, 5.5 mg/L transferrin, 6.7 μg/L selenite, 2 mM L-glutamine, 1 U/mL penicillin, 0.1 mg/mL streptomycin, and 10% fetal bovine serum (FBS). […]
After spheroid formation, cells were exposed to up to five different concentrations of the candidate molecules HK1 or HK3 (0.1 μM, 0.3 μM, 1 μM, 3 μM, and 10 μM) with or without FFA in the culture medium. […] All endpoints were evaluated after 14 days of exposure. […]
Viability was evaluated by ATP quantification using the CellTiter-Glo Luminescent Cell Viability Assay (Promega) according to the manufacturer's instructions. […] Subsequently, luminescence signals were measured using a SpectraMax iD5 multi-mode microplate reader (Molecular Devices). Viability was evaluated after up to two weeks of exposure and values are plotted as relative to vehicle (DMSO) controls with or without FFA. […]

Row | Structure (SMILES) | reduction of the caspase 3/7 activity provoked by palmitate, compared among thioacrylamide derivatives [1] | activity at 10 µM [1] [%] | viability of the spheroids (ATP) relative to vehicle (DMSO) [2]
1 | Cc1cc(NC(=S)/C(C#N)=C(\O)C2CC2)ccc1F [HK1, 2-Cyano-3-cyclopropyl-N-(4-fluoro-3-methyl-phenyl)-3-hydroxy-thioacrylamide] | stronger reduction | 263 | did not affect
2 | Cc1cc(NC(=S)/C(C#N)=C(\O)C2CC2)ccc1[N+](=O)[O-] [HK3, 2-Cyano-3-cyclopropyl-3-hydroxy-N-(3-methyl-4-nitro-phenyl)-thioacrylamide] | strongest reduction | 42.3 | did not affect
